In the NIST ThermoML archive (doi:10.1021/je0501078):

Experiment: molar heat capacity at constant pressure
Conditions: 101.33 kPa

O=C1CCCCC1C1(O)CCCCC1 (centres undefined) [1'-hydroxy-[1,1'-bicyclohexyl]-2-one]
Crystal
Conditions	molar heat capacity at constant pressure [J/K/mol]
5 K	0.496
10 K	3.909
15 K	10.08
20 K	17.48
25 K	25.17
30 K	32.48
35 K	39.18
40 K	45.5
45 K	51.25
50 K	56.58
60 K	66.47
70 K	75.55
80 K	84.14
90 K	92.37
100 K	100.7
110 K	108.6
120 K	116.4
130 K	124.2
140 K	132
150 K	139.8
160 K	147.7
170 K	155.8
180 K	163.9
190 K	171.9
200 K	180
210 K	188.2
220 K	196.6
230 K	205.1
240 K	213.9
250 K	223.2
260 K	233.2
270 K	243.9
280 K	255.5
290 K	268
300 K	281.5
306.75 K	291.3

Liquid, Large sample (1 g) DSC
Conditions	molar heat capacity at constant pressure [J/K/mol]
306.75 K	350
310 K	352
320 K	359.3
330 K	367.5
340 K	376.8
350 K	387.2
360 K	398.7
370 K	411.2
